The values below come from patent US12357656B2 (AMORPHICAL LTD, priority 2019, dated 2025).

Data set [1] can be described thus: Titration of DPBS and DMEM/F12 + 10% FBS with different carbonate sources (pH effect). It is filed as physicochemical. The following applies: for Amount in ml that was needed to reach pH 8: 73.5 mM carbonate suspension or solution. An excerpt: Two commercial media, Dulbecco's phosphate-buffered saline (DPBS) and Gibco Dulbecco's Modified Eagle Medium: Nutrient Mixture F-12 (DMEM/F12), with 10% Fetal Bovine Serum (FBS) were used to evaluate the pH effect of different sources of calcium carbonate. DPBS is Dulbecco's Phosphate Buffered Saline, generally serves as an isotonic saline solution or buffer for washing cells and tissues and intends to provide a buffer system for maintaining cell culture media in the physiological range of 7.2-7.6.
DMEM/F12 is a widely used basal medium for supporting the growth of many different mammalian cells. DMEM/F12 medium+10% FBS was used to maximally mimic the environment of the body fluids.
Three sources of calcium carbonate were used ACC, Sodium bicarbonate (SBC) and Crystalline Calcium Carbonate (CCC).
The final composition comprised 73.53 mM of CaCO3 in the water suspension.
The addition was done until a pH plateau was accomplished or the level of the solution reached the end of the capacity of the used container (˜130 ml).

For data set [2] the following is noted: oral administration of 300 mg/kg; Zajac 2009; cited from earlier work.
The conditions of data set [3]: human performance; Requena 2005; cited from earlier work.
The conditions of data set [4]: chronic ingestion, 300 to 500 mg/kg; Lopes-Silva; cited from earlier work.
A further data set deals with athletes. The following applies: about 20-35 g/day; cited from earlier work.
For data set [5] the following is noted: supplementation; Sounders 2016; cited from earlier work.

Consider `O=C([O-])O.[Na+]` [SBC, Sodium bicarbonate], for which the “capability to reach higher pH levels” value in data set [1] (SBC compared with CCC) was “not significantly different”. Also, the “Final pH” value is on record as 8.3 in data set [1] (added to DMEM/F12 + 10% FBS) and 8.30 in data set [1] (added to DPBS). The “Amount in ml that was needed to reach pH 8” value stood at 77 ml in data set [1] (added to DMEM/F12 + 10% FBS) and 76.4 ml in data set [1] (added to DPBS). In data set [2], the “training intensity and swimming performance” value is “can increase training intensity and swimming performance”. For the same molecule, the “doses for which a significant effect was shown” value in data set [3] was “above 300 mg/kg”. The “Wingate test peak or mean power” value in data set [4] is “chronic ingestion of NaHCO3 did”. The reported adverse effects result in the data set on athletes is “stomach aches and discomfort, nausea, and vomiting”.
Turning to `O=C([O-])[O-].[Ca+2]` [CCC, Crystalline Calcium Carbonate], the “Final pH” value is recorded as 7.90 in data set [1] (added to DMEM/F12 + 10% FBS) and 8 in data set [1] (added to DPBS). Besides, the “Amount in ml that was needed to reach pH 8” value turned out to be 80 ml in data set [1] (added to DMEM/F12 + 10% FBS) and 65 ml in data set [1] (added to DPBS).
For the molecule `NCCC(=O)O` [β-alanine], the effect on exercise entry in data set [5] is given as “significant overall ergogenic effect”.
